Data on 30 compounds can be found in PMC3617406 (Molecular pharmaceutics, 2013).

“Also recorded” adds a separate entry of the source. Structures can show the parent of a compound that is named as a salt. Where two headings read alike, the source gives them in different places. Where only a bound is given, the exact number is not on record here.

Data set [1] has as its target T1, human NTCP (Homo sapiens, UniProt Q14973).
T1 sequence (Q14973 1-349): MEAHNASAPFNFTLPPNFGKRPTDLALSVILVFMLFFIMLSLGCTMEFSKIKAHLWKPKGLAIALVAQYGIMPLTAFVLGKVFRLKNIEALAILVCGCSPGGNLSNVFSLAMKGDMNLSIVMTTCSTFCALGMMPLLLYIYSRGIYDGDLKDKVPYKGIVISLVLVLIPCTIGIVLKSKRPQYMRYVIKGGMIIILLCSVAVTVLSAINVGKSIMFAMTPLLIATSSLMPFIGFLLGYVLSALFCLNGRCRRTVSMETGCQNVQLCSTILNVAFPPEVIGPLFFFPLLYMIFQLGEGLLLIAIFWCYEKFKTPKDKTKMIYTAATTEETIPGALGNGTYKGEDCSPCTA
Format: cell-based.

The target in data set [2] is T1, human NTCP. Format: cell-based. The following applies: for NTCP inhibitor or non-inhibitor: inhibitor = Ki less than 300 μM; for potency estimated from few doses: read-out: Estimated Ki for NTCP.
Data set [3] has as its target T2, human ASBT (Homo sapiens, UniProt Q12908).
T2 sequence (Q12908 1-348): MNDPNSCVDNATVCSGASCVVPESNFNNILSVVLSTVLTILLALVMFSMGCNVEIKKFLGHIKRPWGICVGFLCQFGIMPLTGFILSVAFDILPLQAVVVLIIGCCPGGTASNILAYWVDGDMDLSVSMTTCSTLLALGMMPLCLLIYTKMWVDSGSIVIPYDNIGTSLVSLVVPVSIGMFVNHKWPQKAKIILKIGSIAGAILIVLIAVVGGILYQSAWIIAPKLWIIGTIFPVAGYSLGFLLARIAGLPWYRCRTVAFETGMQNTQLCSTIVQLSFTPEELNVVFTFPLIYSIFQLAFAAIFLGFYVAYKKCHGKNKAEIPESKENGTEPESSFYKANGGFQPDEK
Format: cell-based. The following applies: for potency estimated from few doses: read-out: Estimated Ki for ASBT; for taurocholate uptake into ASBT-MDCK cells, percent of control: single drug concentration, same as in NTCP screening (typically 100 μM); for ASBT inhibitor or non-inhibitor: inhibitor = Ki below 300 μM.

The nature of data set [4]: Cytotoxicity study. The following applies: dog, ASBT-MDCK cells.
Data set [5] deals with T1, human NTCP. Description: Taurocholate uptake kinetics into NTCP-HEK293 cells. The following applies: Figure S1.

Regarding `CCCC1O[C@@H]2C[C@H]3[C@@H]4CCC5=CC(=O)C=C[C@]5(C)[C@H]4[C@@H](O)C[C@]3(C)[C@]2(C(=O)CO)O1` (some centres unmarked) [Budesonide], in data set [1], the Ki amounted to 220 ± 45 µM. In data set [2], the “NTCP inhibitor or non-inhibitor” value is “inhibited NTCP” and the potency estimated from few doses is 264 ± 94 µM. Besides, in data set [3], the potency estimated from few doses was 62.6 ± 15 µM and the “taurocholate uptake into ASBT-MDCK cells, percent of control” value is recorded as “below 50%”.

Take `CCOc1nc2cccc(C(=O)O)c2n1Cc1ccc(-c2ccccc2-c2nnn[nH]2)cc1` [Candesartan]: in data set [1], the inhibition constant (Ki) was 233 ± 37 µM. Also, in data set [2], the “NTCP inhibitor or non-inhibitor” value is “inhibited NTCP” and the potency estimated from few doses was 145 ± 44 µM. In addition, in data set [3], the potency estimated from few doses is 67.6 ± 30 µM.

Turning to `COc1ccc([C@@H]2Sc3ccccc3N(CCN(C)C)C(=O)[C@@H]2OC(C)=O)cc1` [Diltiazem], in data set [1], the affinity, expressed as Ki, was 599 ± 212 µM. Also, the potency estimated from few doses was 460 ± 232 µM in data set [2] and 237 ± 21 µM in data set [3].

`COc1cc2nc(N3CCN(C(=O)C4COc5ccccc5O4)CC3)nc(N)c2cc1OC` (centres unmarked) [Doxazosin] returned an inhibition constant (Ki) in data set [1] of 35.3 ± 5.4 µM. For the same compound, in data set [2], the “NTCP inhibitor or non-inhibitor” value was “inhibited NTCP”. In addition, the potency estimated from few doses in data set [2] is 41.2 ± 7.1 µM; in data set [3], 20.9 ± 7.3 µM.

On to `CC(C)OC(=O)C(C)(C)Oc1ccc(C(=O)c2ccc(Cl)cc2)cc1` [Fenofibrate], for which the Ki in data set [1] came to 129 ± 20 µM. For the same compound, in data set [2], the “NTCP inhibitor or non-inhibitor” value is reported as “inhibited NTCP” and the potency estimated from few doses is 211 ± 60 µM. This compound displayed a viability at 10 min, 100 μM in data set [4] of 79.2%. Besides, in data set [3], the potency estimated from few doses is 121 ± 33 µM and the “taurocholate uptake into ASBT-MDCK cells, percent of control” value came to 64.7%.

Consider `COc1ccc2c(c1)c(CC(=O)O)c(C)n2C(=O)c1ccc(Cl)cc1` [Indomethacin], for which, in data set [1], the inhibitory constant (Ki) was found to be 173 ± 24 µM. Further, in data set [2], the “NTCP inhibitor or non-inhibitor” value was “NTCP inhibitors” and the potency estimated from few doses was 141 ± 14 µM. In data set [3], the potency estimated from few doses was 31.3 ± 7.7 µM and the “taurocholate uptake into ASBT-MDCK cells, percent of control” value is given as “below 50%”.

Regarding `CC(=O)N1CCN(c2ccc(OCC3COC(Cn4ccnc4)(c4ccc(Cl)cc4Cl)O3)cc2)CC1` (centres unmarked) [Ketoconazole], the Ki in data set [1] came to 202 µM. Moreover, in data set [2], the “NTCP inhibitor or non-inhibitor” value is given as “NTCP inhibitors” and the potency estimated from few doses is 98.8 ± 12 µM. Besides, in data set [3], the “ASBT inhibitor or non-inhibitor” value is recorded as “ASBT inhibitors”; the potency estimated from few doses was 61.9 ± 27 µM; the “taurocholate uptake into ASBT-MDCK cells, percent of control” value is “below 50%”.

In the case of `CC(C(=O)O)c1cccc(C(=O)c2ccccc2)c1` (centres unmarked) [Ketoprofen], in data set [1], the Ki came out at 321 ± 57 µM. Moreover, the potency estimated from few doses in data set [2] is 361 ± 178 µM; in data set [3] it was 480 ± 609 µM.

On to `C[C@H]1C[C@@H]2[C@H]([C@@H](O)C[C@@]3(C)[C@H]2CC[C@]3(O)C(=O)CO)[C@@]2(C)C=CC(=O)C=C12` [Methylprednisolone], for which, in data set [1], the inhibition constant (Ki) worked out at 238 ± 33 µM. Further, the “fold more potent NTCP inhibition than ASBT inhibition” value in data set [2] (Ki values of Table 4 and 5) is reported as at least 10 fold. Also, in data set [2], the “NTCP inhibitor or non-inhibitor” value is given as “NTCP inhibitors; also recorded: inhibited NTCP but not ASBT” and the potency estimated from few doses is 255 ± 53 µM. Further, in data set [3], the “ASBT inhibitor or non-inhibitor” value was “inhibited NTCP but not ASBT” and the potency estimated from few doses was over 100 µM.

In turn, `CC(C)[C@H]1CC[C@H](C(=O)N[C@H](Cc2ccccc2)C(=O)O)CC1` [Nateglinide] had a Ki in data set [1] of 200 ± 32 µM. For the same compound, in data set [2], the “NTCP inhibitor or non-inhibitor” value is on record as “inhibited NTCP” and the potency estimated from few doses was 111 ± 7 µM. The potency estimated from few doses in data set [3] is 77 ± 16 µM.

`CCc1nn(CCCN2CCN(c3cccc(Cl)c3)CC2)c(=O)n1CCOc1ccccc1` [Nefazodone]: the Ki in data set [1] was found to be 126 ± 20 µM. In data set [2], the “NTCP inhibitor or non-inhibitor” value was “NTCP inhibitors” and the potency estimated from few doses is 100 ± 8 µM. Besides, in data set [3], the potency estimated from few doses is 30.8 ± 3.6 µM and the “taurocholate uptake into ASBT-MDCK cells, percent of control” value is given as “below 50%”.

As to `COC(=O)C1=C(C)NC(C)=C(C(=O)OCCN(C)Cc2ccccc2)C1c1cccc([N+](=O)[O-])c1` (centres unmarked) [Nicardipine], the potency estimated from few doses in data set [2] is 309 ± 144 µM; in data set [3], 142 ± 3 µM.

Regarding `COc1ccc2[nH]c([S+]([O-])Cc3ncc(C)c(OC)c3C)nc2c1` (centres unmarked) [Omeprazole], the potency estimated from few doses in data set [2] was over 100 µM; in data set [3], 103 ± 23 µM. Besides, in data set [3] (Ki values of Table 4 and 5), the “fold more potent ASBT inhibition than NTCP inhibition” value was at least 10 fold.

Consider `CCOC(=O)C1=C[C@@H](OC(CC)CC)[C@H](NC(C)=O)[C@@H](N)C1` [Oseltamivir], for which the results for the potency estimated from few doses in data set [2] and in data set [3] were over 100 µM and 1020 ± 49 µM, respectively.

Consider `C[C@]12C=CC(=O)C=C1CC[C@@H]1[C@@H]2[C@@H](O)C[C@@]2(C)[C@H]1CC[C@]2(O)C(=O)CO` [Prednisolone], for which the potency estimated from few doses in data set [2] was 335 ± 177 µM; in data set [3] it was 89.2 ± 32 µM.

The compound `CCCN(CCC)S(=O)(=O)c1ccc(C(=O)O)cc1` [Probenecid] came in with an inhibition constant Ki in data set [1] of 544 ± 217 µM. For the same compound, the potency estimated from few doses in data set [2] was 435 ± 114 µM; in data set [3] it was 425 ± 155 µM.

As to `CCN(CC)CCNC(=O)c1ccc(N)cc1` [Procainamide HCl], the potency estimated from few doses in data set [2] is 384 ± 185 µM; in data set [3] it was over 100 µM.

In data set [1], `CN1CCN(CCCN2c3ccccc3Sc3ccc(Cl)cc32)CC1` [Prochlorperazine] displayed a Ki of 209 ± 27 µM. In data set [2], the “NTCP inhibitor or non-inhibitor” value was “NTCP inhibitors” and the potency estimated from few doses was 280 ± 37 µM. In addition, in data set [3], the potency estimated from few doses was 27.4 ± 4.6 µM and the “taurocholate uptake into ASBT-MDCK cells, percent of control” value is “below 50%”.

On to `CCCNCC(O)COc1ccccc1C(=O)CCc1ccccc1` (centres unmarked) [Propafenone HCl], for which the potency estimated from few doses in data set [2] is 402 ± 116 µM; in data set [3] it was 50.3 ± 18 µM.

With `C=C[C@H]1C[N@@]2CC[C@H]1C[C@H]2[C@H](O)c1ccnc2ccc(OC)cc12` [Quinine], the potency estimated from few doses in data set [2] was 1490 ± 581 µM; in data set [3], 239 ± 117 µM.

For `COC(=O)[C@H]1[C@H]2C[C@@H]3c4[nH]c5cc(OC)ccc5c4CCN3C[C@H]2C[C@@H](OC(=O)c2cc(OC)c(OC)c(OC)c2)[C@@H]1OC` [Reserpine], the figures for the “NTCP inhibitor or non-inhibitor” value in data set [2] and in data set [2] (listed as reserpine) were “inhibited human NTCP” and “inhibited NTCP”, respectively. The potency estimated from few doses in data set [2] is 89.1 ± 65 µM; in data set [3], 21.6 ± 2.9 µM.

As to `CCCN(CCC)CCc1cccc2c1CC(=O)N2` [Ropinirole], the potency estimated from few doses in data set [2] was over 100 µM; in data set [3], 30.3 ± 11 µM. In data set [3], the “taurocholate uptake into ASBT-MDCK cells, percent of control” value was “below 50%”.

As to `Nc1ccc(S(N)(=O)=O)cc1` [Sulfanilamide], in data set [2], the “NTCP inhibitor or non-inhibitor” value is given as “inhibited NTCP” and the potency estimated from few doses is 250 ± 50 µM. Further, the potency estimated from few doses in data set [3] is 194 ± 24 µM.

For the compound `O=C1C(CC[S+]([O-])c2ccccc2)C(=O)N(c2ccccc2)N1c1ccccc1` (centres unmarked) [Sulfinpyrazone], the potency estimated from few doses in data set [2] is 1660 ± 2870 µM; in data set [3], 529 ± 600 µM.

On to `CN1CCN(CC/C=C2/c3ccccc3Sc3ccc(S(=O)(=O)N(C)C)cc32)CC1` [Thiothixene], for which the potency estimated from few doses in data set [2] and in data set [3] was over 100 µM each time.

For the compound `Nc1nc(N)c2nc(-c3ccccc3)c(N)nc2n1` [Triamterene], the potency estimated from few doses is 411 ± 139 µM in data set [2] and 110 ± 3 µM in data set [3].

As to `CCCCC(=O)N(Cc1ccc(-c2ccccc2-c2nnn[nH]2)cc1)[C@H](C(=O)O)C(C)C` [Valsartan], in data set [2], the “NTCP inhibitor or non-inhibitor” value is “did not inhibit NTCP” and the potency estimated from few doses is over 100 µM. In data set [4], this compound gave a viability at 10 min, 100 μM of 77.9%. For the same compound, the potency estimated from few doses in data set [3] is 1260 µM.

On to `CC(=O)CC(c1ccccc1)c1c(O)c2ccccc2oc1=O` (centres unmarked) [Warfarin], for which the potency estimated from few doses in data set [2] is over 100 µM; in data set [3], 97.4 ± 26 µM.

As for `COC(=O)[C@@H]1[C@H]2C[C@H]3c4[nH]c5ccccc5c4CCN3C[C@@H]2CC[C@@H]1O` [Yohimbine], the potency estimated from few doses was over 100 µM in data set [2] and 377 ± 442 µM in data set [3].

Take `C[C@H](CCC(=O)NCCS(=O)(=O)O)[C@H]1CC[C@H]2[C@@H]3[C@H](O)C[C@@H]4C[C@H](O)CC[C@]4(C)[C@H]3C[C@H](O)[C@]12C` [taurocholate, Taurocholate]: in data set [5], the “Kt (taurocholate Michaelis-Menten constant)” value is listed as 22.7(±3.4) μM, the Vmax is listed as 1.80(±0.03) pmol/sec/cm^2 and the “passive permeability Pp” value is listed as 1.27(±0.03)x10^−6 cm/sec.

As usually defined, the Ki is a dissociation constant, usually derived from enzyme kinetics or from competition with a known ligand. Higher therefore signals weaker binding. For orientation: viability means a per cent measure of how many cells are alive, often set against a control. Read a low viability as a greater loss of cells.
